Results as given in patent EP4772530A1, “PEPTIDE TARGETING SOMATOSTATIN RECEPTOR, DRUG CONJUGATE AND USE THEREOF” (Mainline Biosciences (Shanghai) Co., Ltd., priority 2023, dated 2025).
Values joined by “and” are separate entries in the source; they are usually repeats but may differ in a detail not shown here. Identical values can stand only once. “Also recorded” adds a separate entry of the source.

Experiments:
[1] = system: Human multiple myeloma MM.1S cells; assay: EX3.3 in vivo pharmacodynamics, MM.1S subcutaneous xenograft model; set-up: species or system CB17 SCID mice; conditions: for Tumor Volume (Mean ± SEM): IV, Twice Weekly
Procedure: Human multiple myeloma MM.1S cells were suspended and cultured in vitro in 1640 medium containing 10% fetal bovine serum, 100 U/mL penicillin, and 100 µg/mL streptomycin in a 5% CO2 incubator at 37°C. The suspended cells were collected by centrifugation twice a week and adherent cells were digested with trypsin-EDTA to prepare a cell suspension for subculture. When the cell saturation was 80%-90% and the cell number reached the requirement, the cells were collected, counted, and inoculated.
CB17 SCID mice, female, 6-8 weeks old, weighing 18-22 g, provided by Zhejiang Vital River Laboratory Animal Technology Co., Ltd.
Each mouse was subcutaneously injected with 100 µL of PBS containing 5×10^6 MM.1S cells + 100 µL of Matrigel (final volume: 200 µL) at the axilla of the right forelimb. At 20 days after injection, when the average tumor volume reached 109 mm^3, mice were grouped for dosing (vehicle control,Ixazomib Citrate, and Example 1 treatment groups, with 6 animals per group). The Ixazomib Citrate group was orally administered by gavage (4 mg/kg) twice a week; the vehicle control group (5%DMSO + 95% normal saline) and the Example 1 treatment group (1.75 mg/kg) were slowly intravenously injected for about 30 seconds each time, twice a week.
The experimental indicators were used to investigate whether tumor growth was inhibited, delayed, or cured. The tumor diameter was measured twice a week using a vernier caliper. The tumor volume was calculated as follows: V = 0.5a×b^2, where a and b were the long and short diameters of the tumor, respectively.
The anti-tumor efficacy of the drug was evaluated based on TGI (%) or relative tumor proliferation rate T/C (%). TGI (%) was the tumor growth inhibition rate. TGI (%) was calculated as follows: TGI (%)=[(1 -(mean tumor volume at the end of dosing in a certain treatment group - mean tumor volume at the start of dosing in the treatment group))/ (mean tumor volume at the end of dosing in the vehicle control group - mean tumor volume at the start of dosing in the vehicle control group)]× 100%.
T/C (%) was calculated as follows:T/C (%)= TRTV/ CRTV× 100 %. Based on the results of tumor measurement, the relative tumor volume (RTV) was calculated as follows: RTV = Vt/V0, where V0 was the mean tumor volume measured at the time of grouping (i.e. d0), and Vt was the mean tumor volume at a certain measurement. Data on the same day were taken for TRTV and CRTV.
Tumor weights were measured at the end of the experiment and T/Cweight was calculated, where Tweight and Cweight were tumor weights in the treatment and vehicle control groups, respectively.
Statistical analysis, including the mean and standard error (SEM) of tumor volume at each time point in each group (see Table 5-1 in Section 5.2 for specific data), was performed to evaluate differences between groups based on data from the treatment group on Day 18 post-dose at the end of the experiment. A t-test was used for comparison between two groups, and one-way ANOVA was used for comparison among three or more groups. If there was a significant difference in F value, the Games-Howell method was used for testing; if there was no significant difference in F value, the Dunnet (2-sided) method was used for analysis. All data were analyzed using SPSS 17.0.

[2] = biological target: T1, SSTR2 (Homo sapiens, UniProt P30874); assay: SSTR2 cAMP test; type: cell-based; conditions: Max Dose 50000 nM
T1 construct: expressed in transfected cells; host or cells: CHO cells (SSTR2/CHO)
T1 sequence (P30874 whole entry): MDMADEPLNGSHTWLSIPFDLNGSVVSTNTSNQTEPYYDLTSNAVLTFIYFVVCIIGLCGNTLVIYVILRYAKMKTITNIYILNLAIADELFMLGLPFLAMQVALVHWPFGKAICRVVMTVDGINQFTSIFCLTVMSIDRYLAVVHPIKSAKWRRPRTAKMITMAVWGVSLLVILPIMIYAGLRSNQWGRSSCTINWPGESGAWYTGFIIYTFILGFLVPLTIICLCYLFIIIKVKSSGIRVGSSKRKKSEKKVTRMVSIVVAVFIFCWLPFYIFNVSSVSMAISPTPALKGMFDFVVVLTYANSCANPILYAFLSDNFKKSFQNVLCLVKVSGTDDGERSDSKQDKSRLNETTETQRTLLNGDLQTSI
Procedure, shortened: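 SSTR2-expressing CHO cells were stimulated with forskolin (100 µM stock) in the presence of 10 compound concentrations from 4-fold dilutions. cAMP detected as the 665/615 nm ratio, normalised to high and low controls. EC50 from log(agonist) vs. response variable-slope fit.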

[3] = system: HL-60; assay: Cell killing in HL-60 by CCK-8; type: cell-based; conditions: HL-60, 48 h
Procedure: • a) Cell line: HL-60 • b) Procedure • (1) Normally cultured HL-60 cells in the logarithmic growth phase were centrifuged at 800 rpm for 5 min to discard the supernatant. Approximately 3 mL of normal medium was added to resuspend the cell pellet by gently pipetting up and down. The cells were then counted using a cell counter and inoculated onto a 96-well plate. • (2) Sample solutions with different concentration gradients were prepared. Approximately 10 µL of each solution was added to the 96-well plate, with 3 to 6 replicate wells for each concentration, and incubated in a 5% CO2 incubator at 37°C for 48 h. • (3) CCK-8 was equilibrated to room temperature before use, and 10 µL of CCK-8 solution was added to each well. • (4) The plate was incubated in the incubator for 0.5-4 h in the dark, with the incubation time depending on experimental conditions such as cell type and density. • (5) The absorbance was measured at 450 nm using a microplate reader. • c) Data analysis Cell viability = [(As−Ab)/(Ac−Ab)] × 100% [formula] Inhibition% = [(Ac−As)/(Ac−Ab)] × 100% [formula] • As: absorbance of sample well (containing cells + medium + CCK-8 solution + drug solution); • Ac: absorbance of control well (containing cells + medium + CCK-8 solution); • Ab: absorbance of blank well (containing medium + CCK-8 solution); • The results were processed and analyzed using Excel and Graphpad Prism to obtain the IC50. Table 4: Test Results of Cell Killing in HL-60 for 48 h

[4] = 18 days after the start of dosing, Example 1 1.75 mg/kg IV twice a week

For `CC[C@H](C)[C@@H]([C@@H](CC(=O)N1CCC[C@H]1[C@H](OC)[C@@H](C)C(=O)N[C@H](C)[C@@H](O)c1ccccc1)OC)N(C)C(=O)[C@@H](NC(=O)[C@H](C(C)C)N(C)C(=O)OCc1ccc(NC(=O)[C@H](CCCNC(N)=O)NC(=O)[C@@H](NC(=O)CCCCCN2C(=O)CC(SC[C@H](NC(C)=O)C(=O)NCCOCCOCC(=O)N[C@@H](CCCNC(=N)N)C(=O)N[C@@H](CCCNC(=N)N)C(=O)N[C@@H](CC(C)C)C(=O)N[C@@H](Cc3ccccc3)C(=O)N[C@H]3CSSC[C@@H](C(=O)N[C@H](C(=O)N[C@@H](Cc4c[nH]c5ccccc45)C(=O)N[C@@H](CCCNC(=N)N)C(=O)N[C@@H](CC(=O)O)C(N)=O)[C@@H](C)O)NC(=O)[C@H]([C@@H](C)O)NC(=O)[C@H](CCCCN)NC(=O)[C@@H](Cc4c[nH]c5ccccc45)NC(=O)[C@H](Cc4ccc(O)cc4)NC3=O)C2=O)C(C)C)cc1)C(C)C` (stereo partly drawn) [Example 1, Cys(MC-Val-Cit-PABC-MMAE)-AEEA-Arg-Arg-Leu-Phe-[Cys-Tyr-D-Trp-Lys-Thr-Cys]-Thr-Trp-Arg-Asp-NH2], the T/C [1, 4] was 0.94%, the TGI [1, 4] was 103.59% and the “tumor inhibition compared to the vehicle control group” value ([1]; 18 days after the start of dosing, Example 1 1.75 mg/kg, p= 0.010, 1.75 mg/kg) was “significant tumor inhibition; also recorded: significant anti-tumor effect”. For the same molecule, the “Tumor Volume (Mean ± SEM)” value ([1]; Day 4, Example 1 1.75 mg/kg) was 144 ± 14 mm3, the “Tumor Volume (Mean ± SEM)” value ([1]; Day 7, Example 1 1.75 mg/kg) was 124 ± 13 mm3 and the “Tumor Volume (Mean ± SEM)” value ([1]; Day 11, Example 1 1.75 mg/kg) was 87 ± 11 mm3. The “Tumor Volume (Mean ± SEM)” value ([1]; Day 14, Example 1 1.75 mg/kg) was 50 ± 8 mm3, the “Tumor Volume (Mean ± SEM)” value ([1]; Day 18, Example 1 1.75 mg/kg, 1.75 mg/kg) was 23 mm3 and 23 ± 5 mm3 and the “Tumor Volume (Mean ± SEM)” value ([1]; Day 21, Example 1 1.75 mg/kg) was 12 ± 5 mm3. The “Tumor Volume (Mean ± SEM)” value ([1]; Day 25, Example 1 1.75 mg/kg) was 0 ± 0 mm3, the “Tumor Volume (Mean ± SEM)” value ([1]; Day 28, Example 1 1.75 mg/kg) was 0 ± 0 mm3 and the complete response rate ([1]; Example 1 1.75 mg/kg) was 100%. The complete response ([1]; Example 1 1.75 mg/kg, 6 animals in the group) was “all achieved a complete response”, the activity at 50 µM [2] was 93.9% and the “Bottom (Inhibition at Lowest Point)” value [3] was 1.71. For the same molecule, the “Top (Inhibition at Highest Point)” value [3] was 86.42.
